Measurements reported in PubChem BioAssay AID248 (DTP/NCI, 2004).
Several values for one entry are separate records, joined by “and”; a condition that tells them apart may be missing. Equal entries are not always repeated. Inconclusive results and toxic doses are left out. Rule as the data show it: active = T/C of 150% or more; inactive = T/C below 125%.

System: L1210 leukemia ip in BDF1 mice, survival T/C
Experiment: NCI In Vivo Anticancer Drug Screen. Data for tumor model L1210 Leukemia (intraperitoneal) in B6D2F1 (BDF1) mice
Conditions: endpoint: mean survival time, higher = longer survival
Summary of the method: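 Value reflects the ratio of survival in compound-treated mice to survival in vehicle-treated controls, with both groups carrying the same transplanted tumor.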

[1] = dose: 100.0 mg/kg/injection, schedule: Q04DX003 (ip), vehicle: saline
[2] = dose: 200.0 mg/kg/injection, schedule: Q04DX003 (ip), vehicle: saline
[3] = dose: 400.0 mg/kg/injection, schedule: Q04DX003 (ip), vehicle: saline
[4] = dose: 6.25 mg/kg/injection, schedule: Q04DX003 (ip), vehicle: saline with Tween-80
[5] = dose: 12.5 mg/kg/injection, schedule: Q04DX003 (ip), vehicle: saline with Tween-80
[6] = dose: 100.0 mg/kg/injection, schedule: Q01DX009 (ip), vehicle: Klucel (hydroxypropylcellulose) (HPC)
[7] = dose: 100.0 mg/kg/injection, schedule: Q04DX003 (ip), vehicle: Klucel (hydroxypropylcellulose) (HPC)
[8] = dose: 200.0 mg/kg/injection, schedule: Q01DX009 (ip), vehicle: Klucel (hydroxypropylcellulose) (HPC)
[9] = dose: 200.0 mg/kg/injection, schedule: Q04DX003 (ip), vehicle: Klucel (hydroxypropylcellulose) (HPC)
[10] = dose: 100.0 mg/kg/injection, schedule: Q01DX001 (ip), vehicle: carboxymethylcellulose (CMC)
[11] = dose: 200.0 mg/kg/injection, schedule: Q01DX001 (ip), vehicle: carboxymethylcellulose (CMC)
[12] = dose: 400.0 mg/kg/injection, schedule: Q01DX001 (ip), vehicle: carboxymethylcellulose (CMC)
[13] = dose: 400.0 mg/kg/injection, schedule: Q01DX009 (ip), vehicle: Klucel (hydroxypropylcellulose) (HPC)
[14] = dose: 400.0 mg/kg/injection, schedule: Q04DX003 (ip), vehicle: Klucel (hydroxypropylcellulose) (HPC)
[15] = dose: 100.0 mg/kg/injection, schedule: Q01DX001 (ip), vehicle: saline

Measured: T/C

COc1ccccc1/C=N\N/C(N)=N\N=C\c1ccccc1OC
inactive: dose: 15.0 mg/kg/injection, schedule: Q01DX Z (ip), vehicle: carboxymethylcellulose (CMC) 98 % of control | dose: 30.0 mg/kg/injection, schedule: Q01DX Z (ip), vehicle: carboxymethylcellulose (CMC) 103 % of control | dose: 60.0 mg/kg/injection, schedule: Q01DX Z (ip), vehicle: carboxymethylcellulose (CMC) 103 % of control and 117 % of control | dose: 120.0 mg/kg/injection, schedule: Q01DX Z (ip), vehicle: carboxymethylcellulose (CMC) 101 % of control and 117 % of control | dose: 240.0 mg/kg/injection, schedule: Q01DX Z (ip), vehicle: carboxymethylcellulose (CMC) 108 % of control | dose: 240.0 mg/kg/injection, schedule: Q01DX Z (oral), vehicle: carboxymethylcellulose (CMC) 97 % of control | dose: 480.0 mg/kg/injection, schedule: Q01DX Z (ip), vehicle: carboxymethylcellulose (CMC) 121 % of control | dose: 480.0 mg/kg/injection, schedule: Q01DX Z (oral), vehicle: carboxymethylcellulose (CMC) 105 % of control | dose: 960.0 mg/kg/injection, schedule: Q01DX Z (oral), vehicle: carboxymethylcellulose (CMC) 95 % of control | dose: 1920.0 mg/kg/injection, schedule: Q01DX Z (oral), vehicle: carboxymethylcellulose (CMC) 105 % of control

CC(C)CCCC(C)C1CCC2C3CC(O)C4=CC(O)CCC4(C)C3CCC12C (stereo not given)
inactive: dose: 75.0 mg/kg/injection, schedule: Q01DX001 (ip), vehicle: other 92 % of control | dose: 150.0 mg/kg/injection, schedule: Q01DX001 (ip), vehicle: other 93 % of control

Nc1cc(C(=O)Nc2ccc(C3=NCCCN3)cc2)ccc1C(=O)Nc1ccc(C2=NCCCN2)cc1
inactive: dose: 7.5 mg/kg/injection, schedule: Q01DX Z (oral), vehicle: saline 97 % of control | dose: 15.0 mg/kg/injection, schedule: Q01DX Z (ip), vehicle: saline 93 % of control | dose: 15.0 mg/kg/injection, schedule: Q01DX Z (oral), vehicle: saline 96 % of control | dose: 30.0 mg/kg/injection, schedule: Q01DX Z (oral), vehicle: saline 97 % of control | dose: 60.0 mg/kg/injection, schedule: Q01DX Z (oral), vehicle: saline 103 % of control

CC(C)NCC1CCCO1 (stereo not given)
inactive: [1] 94 % of control | [2] 94 % of control | [3] 97 % of control

C[n+]1ccc(/C=C/c2ccc(O)c3ccccc23)c2ccccc21
inactive: dose: 75.0 mg/kg/injection, schedule: Q01DX001 (ip), vehicle: carboxymethylcellulose (CMC) 100 % of control | dose: 150.0 mg/kg/injection, schedule: Q01DX001 (ip), vehicle: carboxymethylcellulose (CMC) 100 % of control | dose: 300.0 mg/kg/injection, schedule: Q01DX001 (ip), vehicle: carboxymethylcellulose (CMC) 115 % of control

O=c1[nH]c(=O)c(C2OC(CO)C(O)C2O)co1 (stereo not given)
inactive: [4] 123 % of control | [5] 106 % of control

O=C1C(Br)=CC(=C2C=C(Br)C(=O)C(Br)=C2)C=C1Br
inactive: dose: 50.0 mg/kg/injection, schedule: Q01DX009 (ip), vehicle: Klucel (hydroxypropylcellulose) (HPC) 104 % of control | [6] 117 % of control | [7] 96 % of control | [8] 104 % of control | [9] 108 % of control

NNC(=O)c1n[nH]c(=S)[nH]c1=O
inactive: [10] 98 % of control | [11] 103 % of control | [12] 95 % of control

CC(C)(CNc1ccc(C(=O)O)cc1)[N+](=O)[O-]
inactive: dose: 100.0 mg/kg/injection, schedule: Q01DX009 (ip), vehicle: saline 93 % of control | [1] 95 % of control | dose: 200.0 mg/kg/injection, schedule: Q01DX009 (ip), vehicle: saline 90 % of control | [2] 98 % of control | dose: 400.0 mg/kg/injection, schedule: Q01DX009 (ip), vehicle: saline 87 % of control | [3] 90 % of control

CC(=O)OC1OC(CF)C(OC(C)=O)C1OC(C)=O (stereo not given)
inactive: dose: 100.0 mg/kg/injection, schedule: Q01DX009 (ip), vehicle: saline with Tween-80 92 % of control

CCOC(=O)c1ccc(O)c(NC(C)=O)c1
inactive: [6] 95 % of control | [7] 95 % of control | [8] 94 % of control | [9] 100 % of control | [13] 94 % of control | [14] 91 % of control

CCCCOP(=O)(N1CC1CC)N1CC1CC (stereo not given)
inactive: dose: 6.25 mg/kg/injection, schedule: Q01DX009 (ip), vehicle: other 99 % of control | dose: 6.25 mg/kg/injection, schedule: Q04DX003 (ip), vehicle: other 95 % of control | dose: 12.5 mg/kg/injection, schedule: Q01DX009 (ip), vehicle: other 95 % of control | dose: 12.5 mg/kg/injection, schedule: Q04DX003 (ip), vehicle: other 97 % of control | dose: 25.0 mg/kg/injection, schedule: Q01DX009 (ip), vehicle: other 92 % of control | dose: 25.0 mg/kg/injection, schedule: Q04DX003 (ip), vehicle: other 92 % of control | dose: 50.0 mg/kg/injection, schedule: Q04DX003 (ip), vehicle: other 94 % of control | dose: 100.0 mg/kg/injection, schedule: Q04DX003 (ip), vehicle: other 95 % of control

CC(=[N-])CC(C)=O.CC(=[N-])CC(C)=O.[Cu+2]
inactive: [4] 88 % of control | [5] 89 % of control

OCC1OC(n2ncc3c(=S)nc[nH]c32)C(O)C1O (stereo not given)
inactive: dose: 12.5 mg/kg/injection, schedule: Q01DX005 (ip), vehicle: other 103 % of control | dose: 25.0 mg/kg/injection, schedule: Q01DX005 (ip), vehicle: other 95 % of control | dose: 50.0 mg/kg/injection, schedule: Q01DX005 (ip), vehicle: other 97 % of control | dose: 100.0 mg/kg/injection, schedule: Q01DX005 (ip), vehicle: other 98 % of control | dose: 200.0 mg/kg/injection, schedule: Q01DX005 (ip), vehicle: other 98 % of control

Cc1ccc(NC(=S)N(CCC#N)C(C)C)cc1C
inactive: [6] 110 % of control | [8] 106 % of control | [13] 103 % of control

O=C(NC(=O)C(Cl)Cl)Nc1ccc2c(c1)-c1ccccc1C2
inactive: dose: 100.0 mg/kg/injection, schedule: Q01DX001 (ip), vehicle: Klucel (hydroxypropylcellulose) (HPC) 87 % of control | [6] 96 % of control | [7] 92 % of control | dose: 200.0 mg/kg/injection, schedule: Q01DX001 (ip), vehicle: Klucel (hydroxypropylcellulose) (HPC) 90 % of control | [8] 94 % of control | [9] 92 % of control | dose: 400.0 mg/kg/injection, schedule: Q01DX001 (ip), vehicle: Klucel (hydroxypropylcellulose) (HPC) 92 % of control | [13] 100 % of control | [14] 88 % of control

Cc1cc(/C=N/N=c2\[nH][nH]/c(=N\N=C\c3cc(C)n(-c4ccccc4)c3C)c3ccccc23)c(C)n1-c1ccccc1
inactive: dose: 50.0 mg/kg/injection, schedule: Q01DX001 (ip), vehicle: saline 97 % of control | [15] 97 % of control | dose: 200.0 mg/kg/injection, schedule: Q01DX001 (ip), vehicle: saline 92 % of control | dose: 400.0 mg/kg/injection, schedule: Q01DX001 (ip), vehicle: saline 103 % of control

OC(C(F)(F)F)C(F)(F)Cl (stereo not given)
inactive: [15] 104 % of control

C[n+]1cccc2cccc(C(=O)O)c21
inactive: dose: 75.0 mg/kg/injection, schedule: Q01DX001 (ip), vehicle: saline 100 % of control | dose: 150.0 mg/kg/injection, schedule: Q01DX001 (ip), vehicle: saline 94 % of control

CC1(C)CC(=O)CC(C)(CN)C1 (stereo not given)
inactive: [7] 100 % of control | [9] 104 % of control | [14] 100 % of control

[O-]c1on[n+](C2CCCCC2)c1-c1ccccc1
inactive: dose: 100.0 mg/kg/injection, schedule: Q04DX003 (ip), vehicle: saline with Tween-80 95 % of control | dose: 200.0 mg/kg/injection, schedule: Q04DX003 (ip), vehicle: saline with Tween-80 91 % of control | dose: 400.0 mg/kg/injection, schedule: Q04DX003 (ip), vehicle: saline with Tween-80 101 % of control

CCOC(=O)c1ncc(Cl)cc1NC(=O)CC(=O)Nc1cc(Cl)cnc1C(=O)OCC
inactive: [1] 97 % of control | [2] 91 % of control | [3] 92 % of control

CCOC(=O)Nc1cc(NC(c2ccccc2)c2ccccc2)c(N)c(N)n1
inactive: [10] 102 % of control | [6] 98 % of control | [11] 122 % of control | [8] 98 % of control | [12] 107 % of control | [13] 91 % of control
